Values of other authors, collected in patent US20160115147A1, “PRO-DRUG COMPOUNDS” (Proximagen Limited, priority 2013, published 2016).

Legend:
[1] = test system: unique stereo-selective site in rat brain
[2] = test system: unique stereo-selective site in human brain

## CC(=O)c1ccc2c(c1)[C@H](NC(=O)c1ccc(F)c(Cl)c1)[C@H](O)C(C)(C)O2 [Tonabersat]
[1]
  binding affinity to unique stereo-selective site: high affinity
[2]
  binding affinity to unique stereo-selective site: high affinity
